Measured values reported in paper PMC7177456, “A Peptidomimetic Fluorescent Probe to Detect the Trypsin β2 Subunit of the Human 20S Proteasome” (International Journal of Molecular Sciences, 2020).
Read-outs that look alike come from different tables or passages of the source. Non-standard residues stand in square brackets, D forms with d. *: point of attachment. ACC = NC(=O)Cc1cc(=O)oc2cc(N*)ccc12; AMC = Cc1cc(=O)oc2cc(N*)ccc12; hSer = N[C@@H](CCO)C(=O)O; Boc = CC(C)(C)OC(=O)*

Tests used:
[1] = biological target: T1, human 20S proteasome, trypsin-like (β2) subunit (Homo sapiens, UniProt P49720+Q99436); test: Kinetic parameters of substrate 1 with human 20S proteasome (allosteric fit); type: biochemical; conditions: SDS 0.01%, substrate 1
T1 construct: purchased Boston Biochem (Cambridge, MA, USA)
Method: For enzymatic studies, the human 20S proteasome, 26S proteasome, and 20S immunoproteasome were purchased from Boston Biochem (Cambridge, MA, USA). The 20S proteasome concentration for library deconvolution was in the nanomolar range, and this proteasome entity was used for the main study. Deconvolution of the peptide libraries was performed using the iterative solution method. Dimethyl sulfoxide (DMSO) was used as a solvent for preparation of the stock solution (5 mg/mL) for each lyophilized sub-library. This stock solution was diluted ten times using an assay buffer (50 mM Tris/HCl buffer (pH 8.2)) for the 20S and 20Si proteasome, and for 26S, the buffer was supplemented with 40 mM KCl, 2 mM EDTA, 1 mM DTT, 100 µM ATP, and 50 µg/mL bovine serum albumin (BSA). The volume composition of each well of the 96-well plate was: 20 µL library, 160 µL assay buffer, and 20 µL 20S proteasome solution at a concentration of 1.07 × 10^−9 M. Absorbance or fluorescence measurements were performed on a FluoroStar OMEGA multimode microplate reader (BMG, Ortenberg, Germany). Absorbance increases were monitored at 410 nm. The excitation and emission wavelengths were 320 and 450 nm respectively, for the ABZ/ANB. Enzymatic hydrolysis of the peptide was performed in the assay buffer at 37 °C and continued over 60 min.
The procedures to determine the kinetic constants Km and kcat are described below. Increasing concentrations of substrate 1 ranged from 1 × 10^−6 to 2 × 10^−5 M. In parallel, a kinetic assay with the artificial activator SDS at 0.01% was also performed. The data were fitted to an allosteric plot using GraphPad prism v6.0 (GraphPad Software Inc., La Jolla, CA, USA). The specificity constants (kcat/ Km) were calculated from the kcat and Km values. Measurements were performed using a 20S proteasome concentration of 1.07 × 10^−9 M. Three to five measurements were performed for each compound dilution (the systematic error, defined as the standard deviation, never surpassed 20%). The initial hydrolysis rates were used as the amount of enzymatic activity for the tested compounds. All kinetic study details and kinetic parameters have been described elsewhere.

20S proteasome = test: Inhibitory studies: cleavage of substrate 1 in the presence of selective proteasome inhibitors; type: biochemical, human; conditions: 30 min preincubation at 37 °C, 20S 1.07 × 10^−9 M, substrate 1.34 × 10^−5 M, triplicate
Text: A black, 96-well flat-bottomed microplate (Brand GMBH, Wertheim, Germany) was used for the inhibitory studies. Two inhibitors, carfilzomib (a selective inhibitor of the β5 subunit of the 20S proteasome) and epoxomicin, were purchased from Merck (Darmstadt, Germany) and used at final concentrations of 1.15 × 10^−6 M and 5.0 × 10^−5 M, respectively. The β2 inhibitor, PR671A [20], and the β1 inhibitor, NCOO1 [21], were used at a concentration of 5 × 10^−6 M. These reagents were kindly provided by Alexei Kisselev from Dartmouth University (Dartmouth, NH, USA). The concentration of 20S proteasome was 1.07 × 10^−9 M. The buffered proteasome solution was mixed with 10 µL inhibitor solution. This mixture was incubated for 30 min at 37 °C. After this period, the substrate solution was added at a concentration of 1.34 × 10^−5 M, and the fluorescence was measured over time at 320 nm excitation and 450 nm emission wavelengths. All measurements were performed in triplicate.

[2] = tested on: neutrophil-related proteases / neutrophil serine protease 4 (NSP4); conditions: ref [19], cited from earlier work
Text: Recently, we established a new method for the selection and synthesis of artificial fluorogenic substrates composed of DAPEG residues (Figure 1). For the screening of 18 libraries, we created a series of compounds based on the neutrophil serine protease 4 (NSP4) substrate sequence (ABZ–X4–X3–X2–Arg–ANB–NH2) diversified in positions X4 to X2 with DAPEG, resulting in a total of almost 6000 compounds.

[3] = tested on: trypsin-like subunit of the 20S proteasome; conditions: cited from earlier work; for selectivity for trypsin-like specificity: commercially available substrates, no reference given; for selectivity for trypsin-like specificity / selectivity for the trypsin subunit: introduction
Text: Table 1 Overview of the fluorogenic substrates of the trypsin-like subunit of the 20S proteasome. | column: Km (µM); kcat (s^−1); kcat/Km (M^−1 s^−1) || The aim of this work is to develop a new substrate to assay the trypsin-like specificity of the human 20S proteasome that is created by DAPEG building blocks, which are N-substituted functionalized derivates of 3-diaminopropionic acid (Figure 1). The substrate preferences of the β2 subunit have been previously examined. Harris and coworkers described the development of new substrates selected via combinatorial library screening. The substrate peptides were labeled with 7-amino-4-carbamoylmethylcoumarin (ACC) as a reporter moiety, and a specific sequence of the β2 subunit, Ac–Glu– ...

[4] = tested on: chymotrypsin subunit (β5) of the 20S proteasome in human urine; test: Proteasome activity in human urine with the β5 substrate; type: biochemical
Method: All urine samples were purchased from St. Vincent de Paul Hospital in Gdynia, Poland (contract no. JN/777/R720/08.11.17). All methods and procedures were performed in accordance with this contract agreement. Participants were informed about the study and sample collection, and their written consent was collected. […] Therefore, the samples were considered unnamed. The samples of human urine were taken during mid-urination and kept for 48 h at −80 °C until required. All samples used for assay development were taken from healthy volunteers (n = 5), and oncological samples were obtained from patients diagnosed with bladder cancer (n = 8).
In parallel, the urine samples were analyzed using the previously developed substrate ABZ–Val–Val–Ser–Tyr–Ala–Met–Gly–Tyr(3-NO2)–NH2 [21] in two systems: one with the artificial activator SDS at 0.01% and the second without any SDS. The fluorescence of the system was recorded over time. The same conditions for excitation and emission were used as above. All measurements were performed in triplicate.
The resulting data were analyzed using Graphpad Prism version 6.0 software (GraphPad Software Inc., La Jolla, CA, USA). All fluorescent measurements were performed in triplicate and represented by the mean ± standard deviation (SD). A two-tailed Mann–Whitney test was applied for the statistical analysis (p < 0.0001).

With `CCCCCCCCCCCCOS(=O)(=O)[O-].[Na+]` [SDS, sodium dodecyl sulfate] the “effect on β2 subunit activity of the 20S proteasome” value [1] was “not significantly altered”.
With `CC(C)C[C@H](NC(=O)[C@H](CCc1ccccc1)NC(=O)CN1CCOCC1)C(=O)N[C@@H](Cc1ccccc1)C(=O)N[C@@H](CC(C)C)C(=O)[C@@]1(C)CO1` [carfilzomib] the “effect on cleavage of substrate 1” value (20S proteasome; carfilzomib (β5) 1.15 × 10^−6 M) was “a slight activation of the cleavage rate”.
In the case of `CC[C@H](C)[C@H](NC(=O)[C@H]([C@@H](C)CC)N(C)C(C)=O)C(=O)N[C@H](C(=O)N[C@@H](CC(C)C)C(=O)[C@@]1(C)CO1)[C@@H](C)O` [epoxomicin], the “effect on cleavage of substrate 1” value (20S proteasome; epoxomicin (general inhibitor) 5.0 × 10^−5 M) is reported as “proteolytic suppression of substrate 1”.
For “ABZ–Dap(O2(Cbz))–Dap(Cbz)–Dap(GO1)–Arg–ANB–NH2”, the “specificity constant (kcat/Km)” value ([2]; NSP4 substrate-based library) is listed as 130000 M⁻¹ s⁻¹ and the “selectivity towards neutrophil-related proteases” value [2] is listed as “high levels of selectivity”.
For “ABZ–Val–Val–Ser–GNF–Ala–Met–Gly–Tyr(3-NO2)–NH2”, the Km ([3]; ref [21]) is given as 4.24 ± 0.87 µM, the kcat ([3]; ref [21]) is given as 8.41 ± 0.57 s⁻¹ and the kcat/Km ([3]; ref [21]) is given as 1,983,100 ± 2754 M^−1 s^−1.
For “ABZ–Val–Val–Ser–Tyr–Ala–Met–Gly–Tyr(3-NO2)–NH2 [previously developed substrate]”, the “fluorescence increase, healthy samples” value ([4]; healthy urine, all systems (with and without SDS), n = 5) was “no visible fluorescence increase”, the “bladder cancer samples with fluorescence increase” value ([4]; with SDS 0.01%, 8 bladder cancer samples, triplicate) was “seven systems (1–5, 7, and 8)” and the “fluorescence increase rate, sample N° 6” value ([4]; with SDS 0.01%, bladder cancer sample N° 6) was “insignificant”. For the same molecule, the “bladder cancer samples with visible fluorescence increase” value ([4]; without SDS, 8 bladder cancer samples, 320/450 nm, triplicate) was 2 out of the 8.
For “Ac-Leu-Arg-Arg-{AMC} [commercially available 20S proteasome substrate]”, the “selectivity for trypsin-like specificity” value [3] is listed as “significant selectivity”.
For Ac-[dR][hSer]TR-{ACC}, the “selectivity for the trypsin subunit” value ([3]; ref [18]) is listed as “moderate selectivity at higher proteasome concentrations”, the Km ([3]; ref [18]) is listed as 9.43 ± 0.82 µM and the kcat ([3]; ref [18]) is listed as 2.84 ± 0.22 s⁻¹. The kcat/Km ([3]; ref [18]) was 301,005 ± 28,471 M^−1 s^−1 and the kcat/Km ([3]; ref [18], listed as Ac–DArg–Hse–Thr–Arg–ACC) was 301,005 M^−1 s^−1.
In the case of Ac–βAla–Met(O)2–Thr–Arg–ACC, the “selectivity for the trypsin subunit” value ([3]; ref [18]) is given as “most selective”, the Km ([3]; ref [18]) is given as 50.9 ± 2.99 µM and the kcat ([3]; ref [18]) is given as 2.23 ± 0.07 s⁻¹. The kcat/Km ([3]; ref [18]) was 43,790 ± 3233 M^−1 s^−1 and the kcat/Km ([3]; ref [18], listed as Ac–βAla–Met(O2)–Thr–Arg–ACC) was 43,790 M^−1 s^−1.
In the case of “Boc-Leu-Arg-Arg-{AMC} [commercially available 20S proteasome substrate]”, the “selectivity for trypsin-like specificity” value [3] is given as “significant selectivity” and the kcat/Km ([3]; ref [22]) is given as under 500 M⁻¹ s⁻¹.
